Key:
[1] = target: CDK2 (UniProt P24941); assay: Enzyme Assay
[2] = target: CDK2 (UniProt P24941); assay: Enzyme Assay; remark: listed apart in the source
[3] = target: EGFR (human) (UniProt P00533); conditions: a431
[4] = target: EGFR (UniProt P00533)
[5] = target: EGFR (human) (UniProt P00533); conditions: hn5
[6] = target: MAPK14 (human) (UniProt Q16539); assay: Enzyme Assay
[7] = target: MAPK14 (human) (UniProt Q16539); assay: Enzyme Assay; remark: listed apart in the source
[8] = target: EGFR (human) (UniProt P00533); conditions: a431; remark: listed apart in the source
[9] = target: EGFR (mouse) (UniProt P00533); conditions: swiss 3t3 fibroblast
[10] = target: EGFR (human), P00533 [WT]
[11] = target: ROCK2 (human) (UniProt O75116)
[12] = target: EGFR (UniProt P00533); remark: listed apart in the source
[13] = target: EGFR (human) (UniProt P00533)
[14] = target: EGFR (human) (UniProt P00533); remark: listed apart in the source
[15] = target: EGFR (human) (UniProt P00533); conditions: a431; remark: listed apart in the source
[16] = target: PIK3CA (human), P42336 [Assessment of PIK3CA (Mutant) Kinase Activity in MCF-7.1 Cell Line]; assay: Assessment of PIK3CA (Mutant) Kinase Activity in MCF-7.1 Cell Line; conditions: mcf-7
[17] = target: EGFR (human) (UniProt P00533); remark: listed apart in the source
[18] = target: EGFR (UniProt P00533); remark: listed apart in the source
[19] = target: ROCK2 (human) (UniProt O75116); assay: Enzyme Assay
[20] = target: ROCK2 (human) (UniProt O75116); assay: Enzyme Assay; remark: listed apart in the source
[21] = target: EGFR (human) (UniProt P00533); remark: listed apart in the source
[22] = target: MAPK14 (human) (UniProt Q16539); assay: p38 --- IL-1 Inhibition (PBMC cells)
[23] = target: MAPK14 (human) (UniProt Q16539); assay: p38 --- TNF Inhibition (PBMC cells)
[24] = target: MAPK14 (UniProt Q16539); assay: p38-alpha 2 Inhibition
[25] = target: EGFR (human) (UniProt P00533); conditions: a431; remark: listed apart in the source
[26] = target: EGFR (human) (UniProt P00533); conditions: a549
[27] = target: EGFR (human) (UniProt P00533); remark: listed apart in the source
[28] = target: EGFR (human) (UniProt P00533); remark: listed apart in the source
[29] = target: CDK2 (human) (UniProt P24941)
[30] = target: EGFR (human) (UniProt P00533); remark: listed apart in the source
[31] = target: EGFR (UniProt P00533); remark: listed apart in the source
[32] = target: PIK3CA (UniProt P42336); assay: PIK3CA Inhibition
[33] = target: PIK3CA (human), P42336 [Wild-Type]; assay: Assessment of Proliferation of NZB5 Cells Expressing Wild-Type PIK3CA Kinase
[34] = target: PIK3CA (human) (UniProt P42336); assay: Inhibition of PIK3CA Kinase Activity (FP Assay)

Chain of EGFR (P00533 whole entry, looked up): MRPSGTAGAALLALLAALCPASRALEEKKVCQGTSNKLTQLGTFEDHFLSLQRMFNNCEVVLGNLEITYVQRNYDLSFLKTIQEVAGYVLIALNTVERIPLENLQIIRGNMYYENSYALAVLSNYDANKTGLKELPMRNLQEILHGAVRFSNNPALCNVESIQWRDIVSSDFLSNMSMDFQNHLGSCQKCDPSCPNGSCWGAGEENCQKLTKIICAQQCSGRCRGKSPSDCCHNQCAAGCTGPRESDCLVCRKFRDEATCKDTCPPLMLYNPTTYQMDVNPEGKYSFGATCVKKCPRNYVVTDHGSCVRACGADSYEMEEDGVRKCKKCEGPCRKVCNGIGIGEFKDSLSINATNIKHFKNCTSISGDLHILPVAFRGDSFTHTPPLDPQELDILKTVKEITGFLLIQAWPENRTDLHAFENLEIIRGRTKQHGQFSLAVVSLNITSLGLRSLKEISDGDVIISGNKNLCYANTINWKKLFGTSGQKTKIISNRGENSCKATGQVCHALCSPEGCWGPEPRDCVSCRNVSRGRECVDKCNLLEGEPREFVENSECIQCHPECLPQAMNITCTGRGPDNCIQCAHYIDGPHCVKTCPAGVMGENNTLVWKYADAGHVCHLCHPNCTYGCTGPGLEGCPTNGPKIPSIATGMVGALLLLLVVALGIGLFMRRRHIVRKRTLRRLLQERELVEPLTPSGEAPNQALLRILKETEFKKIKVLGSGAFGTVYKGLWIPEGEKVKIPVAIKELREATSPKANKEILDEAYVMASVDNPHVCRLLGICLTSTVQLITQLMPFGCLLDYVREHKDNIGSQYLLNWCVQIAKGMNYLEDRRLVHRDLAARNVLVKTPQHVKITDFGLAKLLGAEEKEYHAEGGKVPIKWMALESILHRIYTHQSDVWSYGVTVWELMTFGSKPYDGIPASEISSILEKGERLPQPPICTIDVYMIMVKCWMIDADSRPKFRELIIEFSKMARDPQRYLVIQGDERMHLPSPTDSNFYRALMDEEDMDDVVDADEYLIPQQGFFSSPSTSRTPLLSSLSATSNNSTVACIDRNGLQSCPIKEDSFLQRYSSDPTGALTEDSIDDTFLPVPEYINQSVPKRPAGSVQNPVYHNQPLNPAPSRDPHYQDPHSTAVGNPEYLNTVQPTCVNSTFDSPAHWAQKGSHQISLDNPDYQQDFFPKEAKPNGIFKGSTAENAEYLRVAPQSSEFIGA
Chain of EGFR (human) (P00533 whole entry, looked up): as above
Chain of MAPK14 (human) (Q16539 whole entry, looked up): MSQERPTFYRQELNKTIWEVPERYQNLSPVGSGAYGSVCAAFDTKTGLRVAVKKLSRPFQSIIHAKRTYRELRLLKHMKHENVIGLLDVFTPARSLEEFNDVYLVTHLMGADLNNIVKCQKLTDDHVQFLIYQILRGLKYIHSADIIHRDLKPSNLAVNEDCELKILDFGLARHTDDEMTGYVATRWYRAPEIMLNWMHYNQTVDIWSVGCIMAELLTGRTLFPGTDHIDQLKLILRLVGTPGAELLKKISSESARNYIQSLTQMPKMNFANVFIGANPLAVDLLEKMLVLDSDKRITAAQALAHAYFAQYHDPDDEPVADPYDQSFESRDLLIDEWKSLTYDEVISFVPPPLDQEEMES
Chain of ROCK2 (human) (O75116 whole entry, looked up): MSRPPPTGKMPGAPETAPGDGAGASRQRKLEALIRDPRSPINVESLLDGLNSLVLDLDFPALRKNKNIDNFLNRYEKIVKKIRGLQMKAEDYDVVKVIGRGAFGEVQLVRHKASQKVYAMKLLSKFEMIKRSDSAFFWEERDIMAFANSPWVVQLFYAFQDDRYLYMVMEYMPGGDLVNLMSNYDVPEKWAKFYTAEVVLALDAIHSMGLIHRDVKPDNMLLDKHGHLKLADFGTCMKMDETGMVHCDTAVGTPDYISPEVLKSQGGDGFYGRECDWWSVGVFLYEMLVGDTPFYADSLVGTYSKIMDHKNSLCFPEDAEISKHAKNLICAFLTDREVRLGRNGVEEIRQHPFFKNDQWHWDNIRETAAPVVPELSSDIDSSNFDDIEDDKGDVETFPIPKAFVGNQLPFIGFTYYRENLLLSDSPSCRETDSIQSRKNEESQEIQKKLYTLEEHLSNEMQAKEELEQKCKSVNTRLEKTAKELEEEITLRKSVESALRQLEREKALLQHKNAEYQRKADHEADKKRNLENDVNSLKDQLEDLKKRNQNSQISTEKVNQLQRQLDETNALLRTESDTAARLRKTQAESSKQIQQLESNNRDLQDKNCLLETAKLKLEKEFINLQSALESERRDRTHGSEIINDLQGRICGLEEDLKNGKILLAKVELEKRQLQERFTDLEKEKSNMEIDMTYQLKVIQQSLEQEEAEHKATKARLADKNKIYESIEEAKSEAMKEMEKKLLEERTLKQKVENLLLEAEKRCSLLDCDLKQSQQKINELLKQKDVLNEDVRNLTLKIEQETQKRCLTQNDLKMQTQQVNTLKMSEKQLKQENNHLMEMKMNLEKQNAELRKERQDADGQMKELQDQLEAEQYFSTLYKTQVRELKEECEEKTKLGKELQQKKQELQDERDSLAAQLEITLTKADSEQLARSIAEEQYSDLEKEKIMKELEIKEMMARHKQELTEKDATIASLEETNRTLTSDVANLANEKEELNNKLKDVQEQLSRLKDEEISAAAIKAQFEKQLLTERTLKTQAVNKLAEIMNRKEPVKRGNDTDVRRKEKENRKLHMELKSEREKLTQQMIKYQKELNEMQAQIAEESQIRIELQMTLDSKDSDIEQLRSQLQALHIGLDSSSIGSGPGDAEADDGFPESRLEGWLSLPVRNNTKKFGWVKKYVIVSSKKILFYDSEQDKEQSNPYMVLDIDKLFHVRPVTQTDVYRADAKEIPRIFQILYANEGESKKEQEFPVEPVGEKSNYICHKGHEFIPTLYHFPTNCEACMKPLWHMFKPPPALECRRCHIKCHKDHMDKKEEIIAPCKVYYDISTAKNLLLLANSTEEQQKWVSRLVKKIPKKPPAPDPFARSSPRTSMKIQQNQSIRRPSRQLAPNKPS
Chain of MAPK14 (Q16539 whole entry, looked up): as the sequence (Q16539 whole entry, looked up) above

SMILES: COc1ccc2c(-c3ccc(N4CCC(N)C4)cc3)nc(N)nc2c1C(C)C (centres undefined)
- IC50 [1]: 296 nM
- IC50 [2]: 2550 nM

SMILES: C[C@H](NC(=O)c1ccc(S(=O)(=O)Oc2ccc(/C=C/[N+](=O)[O-])cc2)cc1)C(=O)N[C@@H](C)C(=O)OC(C)(C)C
- IC50 [3]: 37500 nM

SMILES: CCn1cnc2c(Nc3cccc(Cl)c3)nc(N[C@@H]3CCCC[C@@H]3N)nc21
- IC50 [4]: > 10000 nM

SMILES: OCc1ccc(-c2cc3ncnc(Nc4ccc(OCc5cccc(F)c5)c(Cl)c4)c3s2)o1
- IC50 [5]: 100 nM

SMILES: Cc1ccc(-c2ccnc(C(C)(C)O)n2)cc1-n1c(C)nc(OCc2ncc(F)cc2F)c(Cl)c1=O
- IC50 [6]: 40 nM
- IC50 [7]: 566 nM

SMILES: C#Cc1cccc(Nc2c([N+](=O)[O-])cnc3cc(OCc4ccccc4)c(OC)cc23)c1
- IC50 [8]: 490 nM

SMILES: O=C(O)Cc1c(SSc2[nH]c3ccccc3c2CC(=O)O)[nH]c2ccccc12
- IC50 [9]: > 50000 nM

SMILES: Brc1cccc(Nc2ccnc3ccccc23)c1
- IC50 [10]: 5500 nM

SMILES: COc1cccc([C@@H](C)NC(=O)c2ccc3c(c2)oc2c(C)nccc23)c1
- IC50 [11]: 2.66 nM

SMILES: C=CC(=O)c1ccc2ccccc2c1
- IC50 [12]: 12500 nM

SMILES: Nc1nc(Nc2ccccc2)c2c(n1)[nH]c1ccccc12
- IC50 [13]: 147 nM

SMILES: O=C(C=CCN1CCOCC1)Nc1ccc2ncnc(Nc3cccc(Br)c3)c2c1
- IC50 [14]: 74 nM
- IC50 [15]: 1890 nM

SMILES: Cc1nc(N)ncc1-c1nc(N2CCOCC2)c2sc(CN3CCN(S(C)(=O)=O)CC3)cc2n1
- IC50 [16]: 290 nM

SMILES: Cc1cc(N2CCN(CCC#N)CC2)cc2[nH]c(-c3c(NC[C@@H](O)c4ccccc4Cl)cc[nH]c3=O)nc12
- IC50 [17]: > 10000 nM

SMILES: O=C(c1cccc2[nH]ccc12)N1CCC(Cc2ccccc2)CC1
- IC50 [18]: > 500000 nM

SMILES: NCc1ccc(C(=O)Nc2ccncc2F)cc1-c1cccc(C(=O)Nc2ccc(C(=O)O)cc2)c1
- IC50 [19]: 1 nM
- IC50 [20]: 4.1 nM

SMILES: C=CC(=O)Nc1ccc(-n2nc(-c3ccc(Cl)c(Cl)c3)c3c(N)ncnc32)cc1
- IC50 [21]: < 100 nM

SMILES: Cc1cccc(Sc2ccc3c(-c4c(Cl)cccc4Cl)c(=O)ncn3n2)c1
- IC50 [22]: 210 nM
- IC50 [23]: 280 nM

SMILES: O=C(Nc1cc(C2[C@H]3C[C@@H]4C[C@@H](C[C@H]2C4)C3)no1)Nc1cccc(Cl)c1Cl (some centres undefined)
- inhibition ([24]; concentration not given here): 9%

SMILES: COc1cc(OC)c2c(=O)n(-c3cccc(C(=O)NC4CCCC4)c3)ccc2c1
- IC50 [25]: 15300 nM
- IC50 [26]: 18600 nM
- IC50 [27]: 2120 nM

SMILES: Nc1nc(Nc2cccc(Cl)c2)c2c(n1)[nH]c1ccccc12
- IC50 [13]: 6 nM

SMILES: O=C(c1c[nH]c2ccccc12)N1CCC(Cc2ccccc2)CC1
- IC50 [18]: > 500000 nM

SMILES: CCn1c(=O)c(-c2c(Cl)cccc2Cl)cc2cnc(Nc3ccncc3)nc21
- IC50 [28]: 250 nM

SMILES: NC(=O)c1ccccc1NC(=O)Nc1ccc(Cl)c(Cl)c1
- IC50 [24]: 100 nM

SMILES: CS(=O)(=O)CCNCc1cc(-c2cc3ncnc(Nc4ccc(OCc5cccc(F)c5)c(Cl)c4)c3s2)cs1
- IC50 [5]: 100 nM

SMILES: N=C(N)NS(=O)(=O)c1ccc(NC2=Cc3ccc(C(=O)c4c(Cl)cccc4Cl)cc3C2)cc1
- IC50 [29]: 250 nM

SMILES: Cc1ccc2[nH]c(SSc3[nH]c4ccc(C)cc4c3CCC(=O)O)c(CCC(=O)O)c2c1
- IC50 [9]: > 50000 nM

SMILES: Cc1nc(N)ncc1-c1nc(N2CCOCC2)c2sc(C(C)(C)O)cc2n1
- IC50 [16]: 280 nM

SMILES: CNC(=O)c1ccc(S(=O)(=O)Oc2ccc(/C=C/[N+](=O)[O-])cc2)cc1
- IC50 [3]: 37500 nM

SMILES: COc1cc2ncnc(Oc3ccc(Br)cc3F)c2cc1OC
- IC50 [30]: 5900 nM

SMILES: COc1cc2ncnc(Nc3ccc(F)c(Cl)c3)c2cc1OCCN1CCOCC1
- IC50 [31]: 10 nM

SMILES: CCCCCCCCCCCCCCCC(=O)OC[C@H](COP(=O)(O)O[C@H]1[C@H](O)[C@@H](O)[C@H](O)C[C@H]1O)OC(=O)CCCCCCCCCCCCCCC
- IC50 [32]: 38400 nM

SMILES: Cc1cc(N2CCOCC2)cc2[nH]c(-c3c(NC[C@@H](O)c4ccccc4Cl)cc[nH]c3=O)nc12
- IC50 [17]: 1600 nM

SMILES: CCn1cnc2c(Nc3cccc(Cl)c3)nc(N[C@H]3CC[C@@H](N)CC3)nc21
- IC50 [4]: 5300 nM

SMILES: Oc1cccc2c1nc(C(F)F)n2-c1nc(N2CCOCC2)cc(N2CCOCC2)n1
- IC50 [33]: 100 nM

SMILES: COC[C@H]1OC(=O)/C(=C/N(CCN(C)C)C(C)(C)C)C2=C(O)C(=O)C3=C([C@H](OC(C)=O)C[C@@]4(C)C3CC[C@@H]4O)[C@]21C (some centres undefined)
- IC50 [34]: 9.6 nM

SMILES: Cn1c(=O)c(-c2c(Cl)cccc2Cl)cc2cnc(Nc3cccc(Br)c3)nc21
- IC50 [28]: 308 nM

Reference: the Kinase Knowledgebase extract (Sharma et al. 2016)
